Patent US20170107212A1, “NOVEL COMPOUNDS” (Bayer Pharma Aktiengesellschaft, priority 2014, published 2017)
Counter-ions that a name gives are not always drawn.

Columns and labels:
[1] = tested on: constitutive active colorectal cancer cell (CRC) Wnt pathway, HCT116 TOPFlash; assay: Cellular reporter assay, HCT116 Super TopFlash (constitutive active Wnt pathway), luciferase expression; format: cell-based; conditions: Homo sapiens, HCT116 Super TopFlash reporter cells, 36 hours incubation, dilution series 50 μM to 15 nM
Experimental: In order to discover and characterize small molecules which inhibit the constitutive active colorectal cancer cell (CRC) Wnt pathway, a cellular reporter assay was employed. The corresponding assay cell was generated by transfection of the colorectal cancer cell line HCT116 (ATCC, #CCL-247) with the Super TopFlash vector (Morin, Science 275, 1997, 1787-1790; Molenaar et al., Cell 86 (3), 1996, 391-399). The HCT116 cell line is cultivated at 37° C. and 5% CO2 in DMEM/F-12 (Life Technologies, #11320-074), supplemented with 2 mM glutamine, 20 mM HEPES, 1.4 mM pyruvate, 0.15% Na-bicarbonate and 10% foetal bovine serum (GIBCO, #10270), this cancer cell line is pathophysiological relevant since it carries a deletion of position S45 in the β-catenin gene, leading to constitutive active Wnt signaling. Stable transfectants were generated by cotransfection with pcDNA3 and selection of stable transfected cells with 1 mg/ml G418.
(§1) In preparation of the assay, the two cell lines were plated 24 hours before at 10000 cells per well of a 384 micro titre plate (MTP) in 30 μL growth medium. Selective inhibitory activity for small molecules on the mutated Wnt pathway was determined after parallel incubation of both (TOP and FOP) HCT116 reporter cell lines with a compound dilution series from 50 μM to 15 nM in steps of 3.16-fold dilutions in CAFTY buffer (130 mM NaCl, 5 mM KCl, 20 mM HEPES, 1 mM MgCl2, 5 mM NaHCO3, pH 7.4) containing 2 mM Ca^2+ and 0.01% BSA. The compounds were thereby serially prediluted in 100% DMSO and thereafter in addition 50 fold into the CAFTY compound dilution buffer (described above). From this dilution 10 μL were added to the cells in 30 μL growth medium and incubated for 36 hours at 37° C. and 5% CO2. Thereafter luciferase assay buffer (1:1 mixture of luciferase substrate buffer (20 mM Tricine, 2.67 mM MgSO4, 0.1 mM EDTA, 4 mM DTT, 270 μM Coenzyme A, 470 μM Luciferin, 530 μM ATP, ph adjusted to pH 7.8 with a sufficient volume of 5M NaOH) and Triton buffer (30 mL Triton X-100, 115 mL glycerol, 308 mg Dithiothreitol, 4.45 g Na2HPO4.2H2O, 3.03 g TRIS HCl, ad 1 l H20, pH 7.8) was added as equal volume to the compound solution on the cells to determine luciferase expression as a measure of Wnt signaling activity in a luminometer.

HCT116 FOPFlash = assay: Control reporter assay, HCT116 FOP control vector (non-functional TCF elements), luciferase expression; format: cell-based; conditions: Homo sapiens, HCT116 FOP control reporter cells, 36 hours incubation, dilution series 50 μM to 15 nM
Experimental: In a parallel approach, HCT116 cells were cotransfected with the FOP control vector and pcDNA3. The FOP vector is identical to the TOP construct, but it contains instead of functional TCF elements a randomized, non-functional sequence. For this transfection a stable transfected cell line was generated as well.
as §1

Structure (SMILES) | IC50 ([1]; HCT-116, 36 h) | IC50 (HCT116 FOPFlash; HCT-116, 36 h) | IC50 ([1]; HCT-116) | IC50 (HCT116 FOPFlash; HCT-116)
CN1CCN(CC(=O)Nc2cc(C(=O)Nc3nnc(-c4nccs4)s3)ccc2OC(F)(F)F)CC1 [Example 45, 1-methyl-4-(2-oxo-2-{[5-{[5-(1,3-thiazol-2-yl)-1,3,4-thiadiazol-2-yl]carbamoyl}-2-(trifluoromethoxy)phenyl]amino}ethyl)piperazin-1-ium hexafluorophosphate] | – | – | 1.48 µM | 45 µM
Cc1cncc(-c2nnc(NC(=O)c3ccc(OC(F)(F)F)c(NC(=O)CN4CCN(C)CC4)c3)s2)c1 [Example 39, 1-methyl-4-(2-{[5-{[5-(5-methylpyridin-3-yl)-1,3,4-thiadiazol-2-yl]carbamoyl}-2-(trifluoromethoxy)phenyl]amino}-2-oxoethyl)piperazin-1-ium hexafluorophosphate] | – | – | 0.0858 µM | ≥ 50 µM
CC(C(=O)Nc1cc(C(=O)Nc2ccc(-c3cncnc3)nc2)ccc1OC(F)(F)F)N1CCOCC1 (stereo not shown) [Example 4, 3-{[2-(morpholin-4-yl)propanoyl]amino}-N-[6-(pyrimidin-5-yl)pyridin-3-yl]-4-(trifluoromethoxy)benzamide] | 0.0195 µM | ≥ 50 µM | – | –
Nc1ncc(-c2nnc(NC(=O)c3ccc(OC(F)(F)F)c(NC(=O)CN4CCOCC4)c3)s2)cn1 [Example 94, N-[5-(2-aminopyrimidin-5-yl)-1,3,4-thiadiazol-2-yl]-3-[(morpholin-4-ylacetyl)amino]-4-(trifluoromethoxy)benzamide] | 23.2 µM | ≥ 50 µM | – | –
Cc1ccncc1-c1nnc(NC(=O)c2ccc(OC3COC3)c(NC(=O)CN3CCOCC3)c2)s1 [Example 79, N-[5-(4-methylpyridin-3-yl)-1,3,4-thiadiazol-2-yl]-3-[(morpholin-4-ylacetyl)amino]-4-(oxetan-3-yloxy)benzamide] | 0.24 µM | ≥ 50 µM | – | –
CC(C(=O)Nc1cc(C(=O)Nc2ccc(-c3ccc(F)nc3)nc2)ccc1OC(F)(F)F)N1CCOCC1 (stereo not shown) [Example 23, N-(6′-fluoro-2,3′-bipyridin-5-yl)-3-{[2-(morpholin-4-yl)propanoyl]amino}-4-(trifluoromethoxy)benzamide] | 0.0535 µM | ≥ 50 µM | – | –
CC(C(=O)Nc1cc(C(=O)Nc2ccc(-c3cccnc3)nc2)ccc1OC(F)(F)F)N1CCOCC1 (stereo not shown) [Example 8, N-(2,3′-bipyridin-5-yl)-3-{[2-(morpholin-4-yl)propanoyl]amino}-4-(trifluoromethoxy)benzamide] | 0.0116 µM | ≥ 50 µM | – | –
COc1ccc(NC(=O)c2ccc(-c3ccncc3)s2)cc1NC(=O)CN1CCOCC1 [Example 25, N-{4-methoxy-3-[(morpholin-4-ylacetyl)amino]phenyl}-5-(pyridin-4-yl)thiophene-2-carboxamide] | 4.4 µM | ≥ 50 µM | – | –
Cc1ncccc1-c1nnc(NC(=O)c2ccc(OC(F)(F)F)c(NC(=O)CN3CCOCC3)c2)s1 [Example 28, N-[5-(2-methylpyridin-3-yl)-1,3,4-thiadiazol-2-yl]-3-[(morpholin-4-ylacetyl)amino]-4-(trifluoromethoxy)benzamide] | 1.14 µM | ≥ 50 µM | – | –
CC(C(=O)Nc1cc(C(=O)Nc2ccc(-c3ccncc3)nc2)ccc1OC(F)(F)F)N1CCOCC1 (stereo not shown) [Example 22, N-(2,4′-bipyridin-5-yl)-3-{[2-(morpholin-4-yl)propanoyl]amino}-4-(trifluoromethoxy)benzamide] | 0.285 µM | ≥ 50 µM | – | –
Nc1ncc(-c2nnc(NC(=O)c3ccc(OC(F)(F)F)c(NC(=O)C4(N5CCOCC5)CC4)c3)s2)cn1 [Example 33, N-[5-(2-aminopyrimidin-5-yl)-1,3,4-thiadiazol-2-yl]-3-({[1-(morpholin-4-yl)cyclopropyl]carbonyl}amino)-4-(trifluoromethoxy)benzamide] | 0.197 µM | ≥ 50 µM | – | –
CN1CCN(CC(=O)Nc2cc(C(=O)Nc3ccc(-c4ccc(N)nc4)cn3)ccc2OC(F)(F)F)CC1 [Example 10, N-(6′-amino-3,3′-bipyridin-6-yl)-3-{[(4-methylpiperazin-1-yl)acetyl]amino}-4-(trifluoromethoxy)benzamide] | 0.058 µM | ≥ 50 µM | – | –
O=C(CN1CCOCC1)Nc1cc(C(=O)Nc2nnc(-c3cncnc3)s2)ccc1OC(F)(F)F [Example 69, 3-[(morpholin-4-ylacetyl)amino]-N-[5-(pyrimidin-5-yl)-1,3,4-thiadiazol-2-yl]-4-(trifluoromethoxy)benzamide] | 2.45 µM | ≥ 50 µM | – | –
O=C(CN1CCOCC1)Nc1cc(C(=O)Nc2nnc(-c3cncc(C(F)(F)F)c3)s2)ccc1OC(F)(F)F [Example 58, 3-[(morpholin-4-ylacetyl)amino]-4-(trifluoromethoxy)-N-{5-[5-(trifluoromethyl)pyridin-3-yl]-1,3,4-thiadiazol-2-yl}benzamide] | 7.39 µM | 27.3 µM | – | –

Further lines, with some results ahead:

IC50 ([1]; HCT-116, 36 h) | IC50 (HCT116 FOPFlash; HCT-116, 36 h) | Structure (SMILES) | IC50 ([1]; HCT-116) | IC50 (HCT116 FOPFlash; HCT-116)
7.4 µM | 31 µM | CN1CCN(CC(=O)Nc2cc(C(=O)Nc3nnc(-c4ccnc(N)c4)s3)ccc2OC(F)(F)F)CC1 [Example 90, N-[5-(2-aminopyridin-4-yl)-1,3,4-thiadiazol-2-yl]-3-{[(4-methylpiperazin-1-yl)acetyl]amino}-4-(trifluoromethoxy)benzamide] | – | –
1.08 µM | 43.5 µM | Cc1csc(-c2nnc(NC(=O)c3ccc(OC(F)(F)F)c(NC(=O)CN4CCN(C)CC4)c3)s2)n1 [Example 63, 3-{[(4-methylpiperazin-1-yl)acetyl]amino}-N-[5-(4-methyl-1,3-thiazol-2-yl)-1,3,4-thiadiazol-2-yl]-4-(trifluoromethoxy)benzamide] | – | –
0.34 µM | ≥ 50 µM | Cc1ccncc1-c1nnc(NC(=O)c2ccc(OCC(F)(F)F)c(NC(=O)CN3CCN(C)CC3)c2)s1 [Example 61, 3-{[(4-methylpiperazin-1-yl)acetyl]amino}-N-[5-(4-methylpyridin-3-yl)-1,3,4-thiadiazol-2-yl]-4-(2,2,2-trifluoroethoxy)benzamide] | – | –
8.55 µM | ≥ 50 µM | Cc1ncc(-c2nnc(NC(=O)c3ccc(OC(F)(F)F)c(NC(=O)CN4CCN(C)CC4)c3)s2)s1 [Example 99, 3-{[(4-methylpiperazin-1-yl)acetyl)amino}-N-[5-(2-methyl-1,3-thiazol-5-yl)-1,3,4-thiadiazol-2-yl]-4-(trifluoromethoxy)benzamide] | – | –
0.663 µM | ≥ 50 µM | Cc1cncc(-c2nnc(NC(=O)c3ccc(OC(F)(F)F)c(NC(=O)CN4CCOCC4)c3)s2)n1 [Example 48, N-[5-(6-methylpyrazin-2-yl)-1,3,4-thiadiazol-2-yl]-3-[(morpholin-4-ylacetyl)amino]-4-(trifluoromethoxy)benzamide] | – | –
7.05 µM | ≥ 50 µM | CN1CCN(CC(=O)Nc2cc(C(=O)Nc3nnc(-c4cnccn4)s3)ccc2OC(F)(F)F)CC1 [Example 97, 3-{[(4-methylpiperazin-1-yl)acetyl]amino}-N-[5-(pyrazin-2-yl)-1,3,4-thiadiazol-2-yl]-4-(trifluoromethoxy)benzamide] | – | –
5.15 µM | ≥ 50 µM | CN1CCN(CC(=O)Nc2cc(C(=O)Nc3nnc(-c4cnccc4C(F)(F)F)s3)ccc2OC(F)(F)F)CC1 [Example 70, 3-{[(4-methylpiperazin-1-yl)acetyl]amino}-4-(trifluoromethoxy)-N-{5-[4-(trifluoromethyl)pyridin-3-yl)-1,3,4-thiadiazol-2-yl}benzamide] | – | –
0.167 µM | 40 µM | CN1CCN(CC(=O)Nc2cc(C(=O)Nc3nnc(-c4cccnc4)s3)ccc2OC(F)(F)F)CC1 [Example 20, 3-{[(4-methylpiperazin-1-yl)acetyl]amino}-N-[5-(pyridin-3-yl)-1,3,4-thiadiazol-2-yl]-4-(trifluoromethoxy)benzamide hydrochloride] | – | –
1.01 µM | 8.55 µM | Cc1ccnc(-c2nnc(NC(=O)c3ccc(OC(F)(F)F)c(NC(=O)CN4CCN(C)CC4)c3)s2)c1 [Example 62, 3-{[(4-methylpiperazin-1-yl)acetyl]amino}-N-[5-(4-methylpyridin-2-yl)-1,3,4-thiadiazol-2-yl]-4-(trifluoromethoxy)benzamide] | – | –
